Assay [1] relates to DAPI. The experiment in a line: TAG lipid buildup inhibition with viability readout – cell-based, panel, Nile Red and DAPI fluorescence, H9c2, dose response (AID 651630).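 Also: cells exposed to compound overnight before fixation and staining.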 Particulars: H9c2 cells, DAPI nuclear fluorescence (cytotoxicity counter-readout), oleic acid.
Assay [2] has as its system TAG. The description is as above. Particulars: H9c2 cells, Nile Red TAG fluorescence, oleic acid.

pIC50: −log10 of the molar value. Activity calls are given as the source filed them.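 The calls were made as follows: active = lipid-stain IC50 at or below a set limit, with nuclear-stain toxicity IC50 at least five times higher; inactive = the rest.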 A value given as a limit tells only on which side of the number the result lay.

Regarding `COc1ccc(CNC(=O)Nc2nc(C(N)Cc3ccc(Cl)cc3)cs2)cc1` (stereo unspecified), the IC50 cytotoxicity (DAPI nuclear signal decrease) in assay [1] (mean of runs) is 21.7 µM (inactive); in assay [1] (run 1) it was 19.5 µM; in assay [1] (run 2) it was 23.9 µM. In assay [2] (mean of runs), the IC50 is > 25 µM (inactive). Also, the pIC50 in assay [2] (run 1) and in assay [2] (run 2) was below 4.60 each time.

Take `CC(=O)c1ccc(-c2cnc3c(NC=O)cc(-c4ccc(C(=O)NC5CC5)cc4)cn23)cc1`: the IC50 cytotoxicity (DAPI nuclear signal decrease) is > 25 µM (inactive) in assay [1] (mean of runs), above 25 µM in assay [1] (run 1) and above 25 µM in assay [1] (run 2). Also, the IC50 in assay [2] (mean of runs) is > 25 µM (inactive). Further, the pIC50 in assay [2] (run 1) and in assay [2] (run 2) was below 4.60 throughout.

As for `Cc1cc(N2CCN(Cc3cn(C)nc3-c3cccc(Cl)c3)CC2)cc(C)n1`, the values for the IC50 cytotoxicity (DAPI nuclear signal decrease) in assay [1] (mean of runs), in assay [1] (run 1) and in assay [1] (run 2) were > 25 µM (inactive), above 25 µM and above 25 µM, respectively. For the same compound, the pIC50 in assay [2] (run 1) is below 4.60; in assay [2] (run 2), 4.65.

With `O=C(NCC(c1ccc(F)cc1)N1CCOCC1)c1ccc([N+](=O)[O-])o1` (stereo unspecified), the IC50 cytotoxicity (DAPI nuclear signal decrease) in assay [1] (mean of runs) was 19.7 µM (inactive); in assay [1] (run 1), 19.7 µM; in assay [1] (run 2), 19.6 µM. Moreover, in assay [2] (mean of runs), the IC50 was > 25 µM (inactive). Further, the pIC50 in assay [2] (run 1) and in assay [2] (run 2) was below 4.60 each time.

Regarding `COc1cc(C#Cc2c(-c3cncn3C)n(C)c3ccc(-c4ccc5cc[nH]c5c4)cc23)cc(OC)c1`, the IC50 cytotoxicity (DAPI nuclear signal decrease) in assay [1] (mean of runs) was > 25 µM (inactive); in assay [1] (run 1) it was above 25 µM; in assay [1] (run 2), above 25 µM. Besides, the pIC50 is 4.93 in assay [2] (mean of runs), 4.92 in assay [2] (run 1) and 4.95 in assay [2] (run 2).

Take `O=C(Cc1n[nH]c(=O)c2ccccc12)OCC(=O)c1ccc2c(c1)OCCO2`: the values for the IC50 cytotoxicity (DAPI nuclear signal decrease) in assay [1] (mean of runs), in assay [1] (run 1) and in assay [1] (run 2) were > 25 µM (inactive), above 25 µM and above 25 µM, respectively. Further, in assay [2] (mean of runs), the IC50 is > 25 µM (inactive). Also, the pIC50 in assay [2] (run 1) and in assay [2] (run 2) was below 4.60 each time.

Regarding `CCCC(=O)Nc1nc2ccc(NC(=O)c3ccccc3F)cc2s1`, the values for the IC50 cytotoxicity (DAPI nuclear signal decrease) in assay [1] (mean of runs), in assay [1] (run 1) and in assay [1] (run 2) were > 25 µM (inactive), above 25 µM and above 25 µM, respectively. Further, the pIC50 is 4.89 in assay [2] (mean of runs), 4.91 in assay [2] (run 1) and 4.87 in assay [2] (run 2).

Consider `C=CC[C@@H](CC(=O)N(CCO)Cc1ccccc1)C(=O)N[C@H](COC(=O)[C@@H](CC=C)Cc1ccc(F)cc1)Cc1ccccc1`, for which the IC50 cytotoxicity (DAPI nuclear signal decrease) in assay [1] (mean of runs) is > 25 µM (inactive); in assay [1] (run 1) it was above 25 µM; in assay [1] (run 2) it was above 25 µM. For the same compound, the pIC50 is 5.16 in assay [2] (mean of runs), 5.14 in assay [2] (run 1) and 5.18 in assay [2] (run 2).

For the compound `COc1ccc(C(C(=O)NC(C)(C)C)N(Cc2cccs2)C(=O)CCC(=O)Nc2cc(C)on2)cc1` (stereo unspecified), the figures for the IC50 cytotoxicity (DAPI nuclear signal decrease) in assay [1] (mean of runs), in assay [1] (run 1) and in assay [1] (run 2) were > 25 µM (inactive), above 25 µM and above 25 µM, respectively. Besides, the pIC50 in assay [2] (mean of runs) is 4.87; in assay [2] (run 1) it was 4.90; in assay [2] (run 2), 4.84.

With `CCCCCOc1ccc(NC(=O)CSc2cccc3cccnc23)cc1`, the IC50 cytotoxicity (DAPI nuclear signal decrease) is > 25 µM (inactive) in assay [1] (mean of runs), above 25 µM in assay [1] (run 1) and above 25 µM in assay [1] (run 2). The IC50 in assay [2] (mean of runs) was > 25 µM (inactive). For the same compound, the pIC50 in assay [2] (run 1) and in assay [2] (run 2) was below 4.60 each time.

On to `CCCc1cc(N2CCCC2)n2nc(C)c(-c3ccccc3)c2n1`, for which the IC50 cytotoxicity (DAPI nuclear signal decrease) is > 25 µM (inactive) in assay [1] (mean of runs), above 25 µM in assay [1] (run 1) and above 25 µM in assay [1] (run 2). For the same compound, in assay [2] (mean of runs), the IC50 was > 25 µM (inactive). Besides, the pIC50 in assay [2] (run 1) and in assay [2] (run 2) was below 4.60 each time.

In the case of `C#CCN(C[C@H]1[C@H](OC(=O)NCC2CCCCC2)[C@H](OC(=O)NCC2CCCCC2)C[C@@H](C(=O)OC)[C@H]1C(=O)OC)S(=O)(=O)c1ccc(C)cc1`, the IC50 cytotoxicity (DAPI nuclear signal decrease) in assay [1] (run 1) and in assay [1] (run 2) was above 25 µM in each case. Moreover, the results for the negative logarithm of the IC50 (pIC50) in assay [2] (mean of runs), in assay [2] (run 1) and in assay [2] (run 2) were 5.31, 5.34 and 5.27, respectively.

As to `CCOc1ccc(C2=Nc3ccccc3C(c3ccc(N4CCOCC4)cc3)=NN2)cc1`, the values for the IC50 cytotoxicity (DAPI nuclear signal decrease) in assay [1] (mean of runs), in assay [1] (run 1) and in assay [1] (run 2) were > 25 µM (inactive), above 25 µM and above 25 µM, respectively. The pIC50 in assay [2] (run 1) is below 4.60; in assay [2] (run 2) it was 4.84.

With `Cc1cc(C)c(NC(=O)CSc2nc3ccc(NC(=O)CSc4nnnn4Cc4ccccc4)cc3s2)c(C)c1`, the IC50 cytotoxicity (DAPI nuclear signal decrease) in assay [1] (mean of runs) is > 25 µM (inactive); in assay [1] (run 1), above 25 µM; in assay [1] (run 2) it was above 25 µM. For the same compound, in assay [2] (mean of runs), the IC50 is > 25 µM (inactive). Also, the pIC50 in assay [2] (run 1) and in assay [2] (run 2) was below 4.60 each time.

`Cc1cc(NC(=O)CSc2nc(C(C)C)nc3sc4c(c23)CCC(C)C4)no1` (stereo unspecified): the IC50 cytotoxicity (DAPI nuclear signal decrease) is > 25 µM (inactive) in assay [1] (mean of runs), above 25 µM in assay [1] (run 1) and above 25 µM in assay [1] (run 2). For the same compound, the IC50 in assay [2] (mean of runs) was > 25 µM (inactive). The pIC50 in assay [2] (run 1) and in assay [2] (run 2) was below 4.60 each time.

As to `CCCCc1ccc(N=N/C(C(=O)Nc2cc(OC)c(NC(C)=O)cc2OC)=C(/C)O)cc1`, the IC50 cytotoxicity (DAPI nuclear signal decrease) in assay [1] (mean of runs) was > 25 µM (inactive); in assay [1] (run 1), above 25 µM; in assay [1] (run 2) it was above 25 µM. Moreover, the pIC50 in assay [2] (mean of runs) was 5.00; in assay [2] (run 1), 4.94; in assay [2] (run 2), 5.06.

With `Cc1nn2c(N3CCCC3)cc(C(C)C)nc2c1-c1ccccc1`, the values for the IC50 cytotoxicity (DAPI nuclear signal decrease) in assay [1] (mean of runs), in assay [1] (run 1) and in assay [1] (run 2) were > 25 µM (inactive), above 25 µM and above 25 µM, respectively. Also, the IC50 in assay [2] (mean of runs) is > 25 µM (inactive). Further, the pIC50 in assay [2] (run 1) and in assay [2] (run 2) was below 4.60 throughout.

Turning to `CCCN(CCC)CCNC(=O)c1cc2c(=O)n(CC)c3ccccc3c2s1`, the results for the IC50 cytotoxicity (DAPI nuclear signal decrease) in assay [1] (mean of runs), in assay [1] (run 1) and in assay [1] (run 2) were > 25 µM (inactive), above 25 µM and above 25 µM, respectively. In assay [2] (mean of runs), the IC50 is > 25 µM (inactive). Also, the pIC50 in assay [2] (run 1) and in assay [2] (run 2) was below 4.60 each time.

Take `CCN(CC(=O)Nc1ccc(C(=O)Nc2ccc(OC)cc2)cc1)Cc1nc2ccccc2c(=O)[nH]1`: the values for the IC50 cytotoxicity (DAPI nuclear signal decrease) in assay [1] (mean of runs), in assay [1] (run 1) and in assay [1] (run 2) were > 25 µM (inactive), above 25 µM and above 25 µM, respectively. In assay [2] (mean of runs), the IC50 was > 25 µM (inactive). Also, the pIC50 in assay [2] (run 1) and in assay [2] (run 2) was below 4.60 each time.

The record behind these values is PubChem BioAssay AID651630 (Sanford-Burnham Center for Chemical Genomics, 2012).
